Results on 40 compounds are retold here after ChEMBL document CHEMBL3611993, “Design, synthesis and biological activities of novel oxazolo[4,5-g]quinazolin-2(1H)-one derivatives as EGFR inhibitors” (Eur J Med Chem, 2015).

Usually IC50 stands for the concentration needed to halve the response being measured.

The target of data set [1] is Epidermal growth factor receptor (Homo sapiens, UniProt P00533). Description: Inhibition of EGFR (unknown origin) assessed as incorporation of 33Pi after 1 hr by ELISA. On the technique in general: ELISA stands for enzyme-linked immunosorbent assay.
Sequence of Epidermal growth factor receptor (P00533 whole entry): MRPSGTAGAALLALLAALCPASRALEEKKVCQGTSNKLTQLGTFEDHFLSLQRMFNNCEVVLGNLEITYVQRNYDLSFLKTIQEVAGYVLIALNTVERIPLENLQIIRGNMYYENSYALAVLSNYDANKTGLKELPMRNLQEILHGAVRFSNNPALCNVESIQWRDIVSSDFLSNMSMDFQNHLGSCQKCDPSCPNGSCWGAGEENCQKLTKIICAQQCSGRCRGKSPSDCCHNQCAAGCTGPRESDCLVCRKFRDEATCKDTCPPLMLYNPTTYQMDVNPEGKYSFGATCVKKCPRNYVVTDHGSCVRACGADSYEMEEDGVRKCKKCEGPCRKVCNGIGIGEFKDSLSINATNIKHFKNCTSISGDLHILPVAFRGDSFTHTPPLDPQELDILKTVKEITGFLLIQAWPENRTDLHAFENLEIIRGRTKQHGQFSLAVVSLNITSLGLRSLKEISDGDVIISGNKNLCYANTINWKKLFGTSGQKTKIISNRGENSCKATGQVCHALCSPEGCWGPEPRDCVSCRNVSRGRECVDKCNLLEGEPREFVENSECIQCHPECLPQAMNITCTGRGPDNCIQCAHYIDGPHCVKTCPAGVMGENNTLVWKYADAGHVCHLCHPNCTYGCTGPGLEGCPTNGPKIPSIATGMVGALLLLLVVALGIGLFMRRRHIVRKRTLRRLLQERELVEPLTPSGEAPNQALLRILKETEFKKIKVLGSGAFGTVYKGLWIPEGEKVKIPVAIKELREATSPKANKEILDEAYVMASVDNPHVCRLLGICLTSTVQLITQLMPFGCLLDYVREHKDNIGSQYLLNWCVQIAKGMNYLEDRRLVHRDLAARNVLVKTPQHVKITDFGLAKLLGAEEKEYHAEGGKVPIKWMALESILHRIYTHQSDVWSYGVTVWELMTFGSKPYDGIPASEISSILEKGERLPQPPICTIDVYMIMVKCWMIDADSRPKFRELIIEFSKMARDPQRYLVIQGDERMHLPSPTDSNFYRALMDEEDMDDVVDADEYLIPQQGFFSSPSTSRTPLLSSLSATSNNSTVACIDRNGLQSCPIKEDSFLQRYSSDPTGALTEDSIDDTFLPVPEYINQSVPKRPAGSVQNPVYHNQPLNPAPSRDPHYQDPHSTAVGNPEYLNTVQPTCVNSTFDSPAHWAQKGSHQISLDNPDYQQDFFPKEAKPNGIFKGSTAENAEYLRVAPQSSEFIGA
The test system of data set [2] is KB. Description: Antiproliferative activity against human KB cells expressing EGFR and Src after 48 hrs by SRB assay. The format is functional, cell-based. Background: Sulforhodamine B stains cellular protein and so reports cell mass.
The test system of data set [3] is A498. In words: Antiproliferative activity against human A498 cells expressing EGFR and Src after 48 hrs by SRB assay. The format is functional, cell-based. Conditions: A498, 48 h.
Data set [4] deals with Mus musculus. Description: Toxicity in mouse LLC cells allografted SCID mouse assessed as mortality at 100 mg/kg, po qd for 14 days. The format is organism-based. Conditions: in vivo, 336 h.
The subject of data set [5] is Lewis lung carcinoma cell line. In words: Antitumor activity against mouse LLC cells allografted in SCID mouse assessed as inhibition of tumor growth at 100 mg/kg, po qd for 14 days. The format is functional, organism-based.
Data set [6] deals with Lewis lung carcinoma cell line. Description: Antitumor activity against mouse LLC cells allografted in SCID mouse assessed as extension of survival period at 100 mg/kg, po qd for 14 days. The format is functional, organism-based.
Data set [7] deals with Mus musculus. Description: Toxicity in mouse LLC cells allografted SCID mouse assessed as change in body weight at 100 mg/kg, po qd for 14 days. Conditions: in vivo, 336 h. The format is organism-based.

Calls of active or inactive are those of the source. The rule behind the calls is not given here.

For `COCCn1c(=O)oc2cc3ncnc(Nc4ccc(Cl)cc4)c3cc21`, the half-inhibitory concentration (IC50) in data set [1] is above 10 µM.

For the compound `CCOC(=O)CCCn1c(=O)oc2cc3ncnc(Nc4ccc(OC(C)C)cc4)c3cc21`, the results for the IC50 in data set [1], in data set [2] and in data set [3] were 0.16 µM, 18.6 µM and 41.1 µM, respectively.

As for `CCOC(=O)CCCn1c(=O)oc2cc3ncnc(Nc4ccc(OCc5ccc(Cl)cc5)c(Cl)c4)c3cc21`, the IC50 in data set [1] was found to be 0.053 µM.

As for `CCOC(=O)CCCn1c(=O)oc2cc3ncnc(Nc4cccc(O)c4)c3cc21`, the IC50 in data set [1] was found to be 0.0087 µM; in data set [2], 3.7 µM; in data set [3], 7.6 µM. Also, the values for the Activity result in data set [4] and in data set [7] were “Non-toxic” and “Toxic”, respectively. Besides, the “growth inhibition (GI)” value in data set [5] is “Active”. Moreover, the result in data set [6] was inactive.

Turning to `COCCn1c(=O)oc2cc3ncnc(Nc4ccc(OC)c(OC)c4)c3cc21`, the IC50 in data set [1] worked out at 5.5 µM.

On to `C#Cc1cccc(Nc2ncnc3cc4oc(=O)n(CCOC)c4cc23)c1`, for which, in data set [1], the IC50 is 0.19 µM.

Turning to `CCOC(=O)CCCn1c(=O)oc2cc3ncnc(Nc4ccc(C(=O)OCc5ccc(Cl)cc5)cc4)c3cc21`, the IC50 in data set [2] was found to be 5.5 µM; in data set [3], 8.7 µM.

`C#Cc1cccc(Nc2ncnc3cc(OCCOC)c(OCCOC)cc23)c1` [ERLOTINIB]: the Activity entry in data set [4] is “Non-toxic”. For the same compound, the “growth inhibition (GI)” value in data set [5] was “Active”.

With `COCCn1c(=O)oc2cc3ncnc(Nc4cccc(C(C)=O)c4)c3cc21`, the IC50 in data set [1] came out at 0.56 µM.

In the case of `CCOC(=O)CCCn1c(=O)oc2cc3ncnc(Nc4ccc(C(C)(C)C)cc4)c3cc21`, in data set [1], the half-inhibitory concentration (IC50) is above 10 µM.

`CCOC(=O)CCCn1c(=O)oc2cc3ncnc(Nc4cc(C(=O)OCC)ccc4O)c3cc21`: the IC50 in data set [1] is 0.0073 µM; in data set [2], 19.5 µM; in data set [3], 61.6 µM.

For the compound `CCOC(=O)CCCn1c(=O)oc2cc3ncnc(Nc4ccc(C(=O)OCc5ccc(C#N)cc5)cc4)c3cc21`, the IC50 in data set [1] is above 10 µM.

For the compound `CCOC(=O)CCCn1c(=O)oc2cc3ncnc(Nc4ccccc4)c3cc21`, the IC50 in data set [1] is above 10 µM.

For the compound `CCOC(=O)CCCn1c(=O)oc2cc3ncnc(Nc4ccc(F)c(F)c4)c3cc21`, the figures for the IC50 in data set [1], in data set [2] and in data set [3] were 0.14 µM, 17.9 µM and 36.4 µM, respectively.

Turning to `CCOC(=O)CCCn1c(=O)oc2cc3ncnc(Nc4ccc(S(N)(=O)=O)cc4)c3cc21`, the concentration for half-maximal inhibition (IC50) in data set [1] was above 10 µM; in data set [2] it was 18.7 µM; in data set [3] it was 8 µM.

On to `CCOC(=O)CCCn1c(=O)oc2cc3ncnc(Nc4ccc(OCc5ccccn5)cc4)c3cc21`, for which the values for the half-inhibitory concentration (IC50) in data set [2] and in data set [3] were 16.6 µM and 47 µM, respectively.

`CCOC(=O)CCCn1c(=O)oc2cc3ncnc(Nc4ccc(OCC)cc4)c3cc21`: the IC50 in data set [1] is above 10 µM.

For `CCOC(=O)CCCn1c(=O)oc2cc3ncnc(Nc4cc(C)cc(C)c4)c3cc21`, in data set [1], the half-maximal inhibitory concentration (IC50) amounted to 1.5 µM.

Take `CCOC(=O)CCCn1c(=O)oc2cc3ncnc(Nc4ccc(O)cc4)c3cc21`: the concentration for half-maximal inhibition (IC50) in data set [1] is 0.02 µM; in data set [2], 11.1 µM; in data set [3], 15.2 µM.

For `CCOC(=O)CCCn1c(=O)oc2cc3ncnc(Nc4ccc(OCc5ccc(OC)cc5)c(Cl)c4)c3cc21`, in data set [1], the half-inhibitory concentration (IC50) is above 10 µM.

As for `COCCn1c(=O)oc2cc3ncnc(Nc4ccc(F)c(F)c4)c3cc21`, the results for the IC50 in data set [1], in data set [2] and in data set [3] were 0.026 µM, 1.1 µM and 17.6 µM, respectively.

In the case of `COCCn1c(=O)oc2cc3ncnc(Nc4ccc(OCc5ccc(Cl)cc5)c(Cl)c4)c3cc21`, the IC50 in data set [1] amounted to 1.3 µM; in data set [2], 6.1 µM; in data set [3], 6.2 µM.

Regarding `C#Cc1cccc(Nc2ncnc3cc4oc(=O)n(CCCC(=O)OCC)c4cc23)c1`, in data set [1], the IC50 stood at 5.7 µM.

Turning to `COCCn1c(=O)oc2cc3ncnc(Nc4ccc(OC)cc4)c3cc21`, the IC50 is 5.1 µM in data set [1], 11.7 µM in data set [2] and 33.5 µM in data set [3].

For `CCOC(=O)CCCn1c(=O)oc2cc3ncnc(Nc4ccc(OCc5nccc(OCC(F)(F)F)c5C)cc4)c3cc21`, in data set [1], the IC50 worked out at 0.78 µM.

`CCOC(=O)c1ccc(O)c(Nc2ncnc3cc4oc(=O)n(CCOC)c4cc23)c1`: the figures for the concentration for half-maximal inhibition (IC50) in data set [1], in data set [2] and in data set [3] were 0.44 µM, 6.3 µM and 17.1 µM, respectively.

Take `CCOC(=O)CCCn1c(=O)oc2cc3ncnc(Nc4ccc(OC)c(OC)c4)c3cc21`: in data set [1], the IC50 is above 10 µM.

On to `CCOC(=O)CCCn1c(=O)oc2cc3ncnc(Nc4ccc(Cl)cc4)c3cc21`, for which, in data set [1], the IC50 was determined as 1.2 µM.

For `CCOC(=O)CCCn1c(=O)oc2cc3ncnc(NCc4ccccc4)c3cc21`, the 50% inhibitory concentration (IC50) in data set [1] is above 10 µM.

Consider `CCOC(=O)CCCn1c(=O)oc2cc3ncnc(Nc4ccc5[nH]ncc5c4)c3cc21`, for which the IC50 in data set [1] came out at 0.13 µM; in data set [2], 38.4 µM; in data set [3], 26.8 µM.

Take `CCOC(=O)CCCn1c(=O)oc2cc3ncnc(Nc4ccc(OCc5ccccc5)c(Cl)c4)c3cc21`: in data set [1], the IC50 is above 10 µM.

With `COCCn1c(=O)oc2cc3ncnc(Nc4ccc(OCc5nccc(OCC(F)(F)F)c5C)cc4)c3cc21`, the IC50 in data set [1] stood at 0.34 µM.

In the case of `CCOC(=O)CCCn1c(=O)oc2cc3ncnc(Nc4ccc(C)cc4)c3cc21`, the 50% inhibitory concentration (IC50) in data set [1] was above 10 µM.

For the compound `COCCn1c(=O)oc2cc3ncnc(Nc4ccc(F)c(Cl)c4)c3cc21`, in data set [1], the IC50 is 0.47 µM.

Consider `CCOC(=O)CCCn1c(=O)oc2cc3ncnc(N[C@@H](C)c4ccccc4)c3cc21`, for which the concentration for half-maximal inhibition (IC50) in data set [1] was above 10 µM.

As for `COCCn1c(=O)oc2cc3ncnc(Nc4ccc(C(C)(C)C)cc4)c3cc21`, the half-maximal inhibitory concentration (IC50) in data set [1] is above 10 µM.

As to `CCOC(=O)CCCn1c(=O)oc2cc3ncnc(N[C@H](C)c4ccccc4)c3cc21`, the IC50 in data set [1] is above 10 µM.

With `CCOC(=O)CCCn1c(=O)oc2cc3ncnc(Nc4ccc(F)c(Cl)c4)c3cc21`, the IC50 in data set [1] amounted to 7.8 µM.

Turning to `COCCn1c(=O)oc2cc3ncnc(Nc4cccc(OC(C)C)c4)c3cc21`, the 50% inhibitory concentration (IC50) in data set [1] was above 10 µM.

As to `COCCn1c(=O)oc2cc3ncnc(Nc4ccc(S(N)(=O)=O)cc4)c3cc21`, the IC50 in data set [1] was above 10 µM.
